One experiment concerns the target mTOR (Homo sapiens (Human), UniProt P42345).
The target in the next experiment is PI3-Kα (Mus musculus (Mouse), UniProt P42337). The experiment can be described thus: PI3-Kα biochemical assay (in vitro kinase assay, fluorescence polarization).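 For all read-outs here: Insect-cell-expressed mouse p110/p85 complex converting PI(4,5)P2, product PI(3,4,5)P3 detected by displacing TAMRA-tagged PI(3,4,5)P3 from Grip1 PH domain, lower polarization means more product, room temperature.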 As to conditions: for PI3Ka Ki: Ki calculated from IC50, [ATP]=30 uM, Km=25 uM.
Experiment [1] has as its system PI3-K (phosphorylation of AKT at serine 473) in BT20 cells. The experiment can be described thus: PI3-Kα cellular assay (phospho-AKT Ser473 ELISA in BT20 cells).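 Note: lysates read by ELISA with TMB colour at 450 nm, cells given 0.5% DMSO vehicle serve as positive control and cell-free wells as negative control, duplicate wells per concentration.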 As to conditions: Homo sapiens, BT-20, 1 h. (In an ELISA, binding on a coated surface is turned into a signal by an enzyme label.)
[2] abbreviates: read-out: S473 pAKT 10% FBS IC50 (μM).
[3] abbreviates: read-out: S473 pAKT 0.5% FBS IC50 (μM).

Like-named read-outs stand apart in the source and are kept apart here.

PI3-Kα, sequence (P42337 whole entry, the tested form may be a part): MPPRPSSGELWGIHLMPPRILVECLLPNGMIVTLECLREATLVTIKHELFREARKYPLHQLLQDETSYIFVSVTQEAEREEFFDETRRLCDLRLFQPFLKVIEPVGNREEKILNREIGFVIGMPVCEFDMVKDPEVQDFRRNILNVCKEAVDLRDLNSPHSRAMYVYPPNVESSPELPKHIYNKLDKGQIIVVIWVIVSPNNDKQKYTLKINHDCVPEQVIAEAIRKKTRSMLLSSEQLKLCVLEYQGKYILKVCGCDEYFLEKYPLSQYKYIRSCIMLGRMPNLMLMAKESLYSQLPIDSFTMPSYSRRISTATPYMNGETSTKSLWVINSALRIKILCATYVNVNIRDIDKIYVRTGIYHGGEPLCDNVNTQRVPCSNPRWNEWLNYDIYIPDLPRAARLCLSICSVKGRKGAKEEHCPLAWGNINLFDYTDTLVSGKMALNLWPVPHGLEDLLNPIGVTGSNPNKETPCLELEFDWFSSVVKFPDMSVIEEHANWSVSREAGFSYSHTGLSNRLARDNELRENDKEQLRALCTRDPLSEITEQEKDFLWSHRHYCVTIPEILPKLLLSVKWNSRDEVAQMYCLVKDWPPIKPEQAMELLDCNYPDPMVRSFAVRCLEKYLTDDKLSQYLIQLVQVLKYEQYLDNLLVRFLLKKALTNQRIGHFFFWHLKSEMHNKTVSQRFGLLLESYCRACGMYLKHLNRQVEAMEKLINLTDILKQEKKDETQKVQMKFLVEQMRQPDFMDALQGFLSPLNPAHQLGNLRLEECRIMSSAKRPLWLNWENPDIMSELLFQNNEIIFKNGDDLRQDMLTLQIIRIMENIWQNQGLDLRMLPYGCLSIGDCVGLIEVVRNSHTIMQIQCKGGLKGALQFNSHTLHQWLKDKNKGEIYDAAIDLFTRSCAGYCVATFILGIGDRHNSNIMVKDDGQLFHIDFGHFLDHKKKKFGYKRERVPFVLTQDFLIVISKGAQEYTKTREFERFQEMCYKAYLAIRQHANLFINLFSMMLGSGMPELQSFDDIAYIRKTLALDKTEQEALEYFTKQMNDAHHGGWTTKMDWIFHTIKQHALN
PI3-Kα, sequence (P26450 whole entry partner, the tested form may be a part): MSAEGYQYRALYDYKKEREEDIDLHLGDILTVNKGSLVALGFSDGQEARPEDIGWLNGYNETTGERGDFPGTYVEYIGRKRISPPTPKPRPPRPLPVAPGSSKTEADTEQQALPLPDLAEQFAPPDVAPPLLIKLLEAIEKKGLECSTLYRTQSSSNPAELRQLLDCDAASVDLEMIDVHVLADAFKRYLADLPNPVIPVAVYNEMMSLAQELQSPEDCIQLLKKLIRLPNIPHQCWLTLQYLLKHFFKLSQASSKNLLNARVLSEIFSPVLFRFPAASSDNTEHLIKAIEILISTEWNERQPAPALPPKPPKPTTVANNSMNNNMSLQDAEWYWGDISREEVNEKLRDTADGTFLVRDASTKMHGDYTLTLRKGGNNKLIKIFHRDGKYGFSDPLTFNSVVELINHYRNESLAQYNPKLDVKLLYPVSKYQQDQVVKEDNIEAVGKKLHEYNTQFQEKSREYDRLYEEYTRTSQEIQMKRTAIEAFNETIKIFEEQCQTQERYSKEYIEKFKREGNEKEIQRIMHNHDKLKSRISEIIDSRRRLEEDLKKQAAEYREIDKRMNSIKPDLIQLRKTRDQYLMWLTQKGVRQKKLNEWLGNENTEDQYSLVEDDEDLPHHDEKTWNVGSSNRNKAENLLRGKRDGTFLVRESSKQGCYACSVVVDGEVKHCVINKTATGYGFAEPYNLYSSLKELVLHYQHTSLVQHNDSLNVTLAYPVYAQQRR
mTOR, sequence (P42345 2156-2469): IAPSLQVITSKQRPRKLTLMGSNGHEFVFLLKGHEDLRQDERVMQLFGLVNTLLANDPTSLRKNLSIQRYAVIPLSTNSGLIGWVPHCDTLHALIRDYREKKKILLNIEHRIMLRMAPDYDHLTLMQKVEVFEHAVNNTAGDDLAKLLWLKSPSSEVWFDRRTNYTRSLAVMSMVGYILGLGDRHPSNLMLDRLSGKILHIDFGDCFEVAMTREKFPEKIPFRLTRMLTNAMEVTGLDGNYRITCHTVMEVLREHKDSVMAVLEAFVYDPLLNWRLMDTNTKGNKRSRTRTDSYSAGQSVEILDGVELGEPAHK

As for `Cn1c(=O)n(C2CCN(C(=O)CO)CC2)c2c3nc(-c4ccnc5[nH]ncc45)ccc3ncc21` [Compound 252, 1-(1-glycoloylpiperidin-4-yl)-3-methyl-8-(1H-pyrazolo[3,4-b]pyridin-4-yl)-1,3-dihydro-2H-imidazo[4,5-c][1,5]naphthyridin-2-one], on mTOR, the Ki (usually a dissociation constant, usually derived from enzyme kinetics or from competition with a known ligand) is 1.77 nM. Besides, the “PI3Ka Ki” value at PI3-Kα is 0.832 nM.

For the compound `Cn1c(=O)n(C2CCOCC2)c2c3nc(-c4cnc(N)nc4)ccc3ncc21` [Compound 210, 8-(2-aminopyrimidin-5-yl)-3-methyl-1-(tetrahydro-2H-pyran-4-yl)-1,3-dihydro-2H-imidazo[4,5-c][1,5]naphthyridin-2-one], the IC50 – broadly, the concentration needed to halve the response being measured – in experiment [1] (setting [2]) came to 0.00694 µM.

Take `COc1ncc(-c2ccc3ncc4c(c3n2)n([C@H]2CC[C@H](O)CC2)c(=O)n4C)cn1` [Compound 169, 1-(trans-4-hydroxycyclohexyl)-8-(2-methoxypyrimidin-5-yl)-3-methyl-1,3-dihydro-2H-imidazo[4,5-c][1,5]naphthyridin-2-one]: in experiment [1] (setting [2]), the IC50 is 1 µM. The compound further yielded a Ki at mTOR of 6.39 nM.

Consider `Cn1c(=O)n([C@H]2CC[C@H](O)CC2)c2c3nc(-c4cc[nH]n4)ccc3ncc21` [Compound 174, 1-(trans-4-hydroxycyclohexyl)-3-methyl-8-(1H-pyrazol-3-yl)-1,3-dihydro-2H-imidazo[4,5-c][1,5]naphthyridin-2-one], for which, in experiment [1] (setting [2]), the IC50 turned out to be 0.264 µM. Moreover, the “PI3Ka Ki” value on PI3-Kα was 23.3 nM.

Consider `CNC(=O)Nc1ccc(-c2ccc3ncc4c(c3n2)n(C2CCN(C(=O)CO)CC2)c(=O)n4C)cc1` [Compound 245, 1-{4-[1-(1-glycoloylpiperidin-4-yl)-3-methyl-2-oxo-2,3-dihydro-1H-imidazo[4,5-c][1,5]naphthyridin-8-yl]phenyl}-3-methylurea], for which, at mTOR, the Ki worked out at 2.03 nM. Also, on PI3-Kα, the “PI3Ka Ki” value was 2.19 nM.

On to `CN(C)c1ccc(-c2ccc3ncc4c(c3n2)n(C2CCN(C(=O)C(C)(C)O)CC2)c(=O)n4C)cn1` [Compound 209, 8-[6-(dimethylamino)pyridin-3-yl]-1-[1-(2-hydroxy-2-methylpropanoyl)piperidin-4-yl]-3-methyl-1,3-dihydro-2H-imidazo[4,5-c][1,5]naphthyridin-2-one], for which the half-maximal inhibitory concentration (IC50) in experiment [1] (setting [2]) was determined as 0.00669 µM. Also, at PI3-Kα, the “PI3Ka Ki” value was 0.264 nM.

With `Cn1c(=O)n(C2CCOCC2)c2c3nc(-c4ccn[nH]4)ccc3ncc21` [Compound 202, 3-methyl-8-(1H-pyrazol-5-yl)-1-(tetrahydro-2H-pyran-4-yl)-1,3-dihydro-2H-imidazo[4,5-c][1,5]naphthyridin-2-one], the IC50 in experiment [1] (setting [2]) stood at 0.309 µM. In addition, the “PI3Ka Ki” value at PI3-Kα is 28.3 nM.

As for `COc1ncc(-c2ccc3ncc4c(c3n2)n(-c2ccc(C(C)(C)C#N)cc2)c(=O)n4C)cn1` [Compound 112, 2-(4-(8-(2-methoxypyrimidin-5-yl)-3-methyl-2-oxo-2,3-dihydroimidazo[4,5-c][1,5]naphthyridin-1-yl)phenyl)-2-methylpropanenitrile], the IC50 in experiment [1] (setting [3]) was 0.0272 µM. In addition, on PI3-Kα, the “PI3Ka Ki” value was 6.09 nM.

In turn, `C[C@H](CO)n1c(=O)n(C)c2cnc3ccc(-c4cnn(C)c4)nc3c21` [Compound 232, 1-[(1R)-2-hydroxy-1-methylethyl]-3-methyl-8-(1-methyl-1H-pyrazol-4-yl)-1,3-dihydro-2H-imidazo[4,5-c][1,5]naphthyridin-2-one] returned a Ki on mTOR of 521 nM. Further, the “PI3Ka Ki” value on PI3-Kα is 143 nM.

`COc1ccccc1-c1ccc2ncc3c(c2n1)n(C1CCN(C(=O)CO)CC1)c(=O)n3C` [Compound 279, 1-(1-glycoloylpiperidin-4-yl)-8-(2-methoxyphenyl)-3-methyl-1,3-dihydro 2H-imidazo[4,5-c][1,5]naphthyridin-2-one]: on PI3-Kα, the “PI3Ka Ki” value was 118 nM.

For the compound `C[C@H](CO)n1c(=O)n(C)c2cnc3ccc(-c4cnc5ccccc5c4)nc3c21` [Compound 234, 1-[(1R)-2-hydroxy-1-methylethyl]-3-methyl-8-quinolin-3-yl-1,3-dihydro-2H-imidazo[4,5-c][1,5]naphthyridin-2-one], on PI3-Kα, the “PI3Ka Ki” value was 57.3 nM.

In the case of `Cn1cc(-c2ccc3ncc4c(c3n2)n([C@H]2CC[C@H](C(N)=O)CC2)c(=O)n4C)cn1` [Compound 158, trans-4-[3-methyl-8-(1-methyl-1H-pyrazol-4-yl)-2-oxo-2,3-dihydro-1H-imidazo[4,5-c][1,5]naphthyridin-1-yl]cyclohexanecarboxamide], in experiment [1] (setting [2]), the IC50 is 0.224 µM.

For `CC(=O)N1CCC(n2c(=O)n(C)c3cnc4ccc(-c5cccc(-n6cccn6)c5)nc4c32)CC1` [Compound 247, 1-(1-acetylpiperidin-4-yl)-3-methyl-8-[3-(1H-pyrazol-1-yl)phenyl]-1,3-dihydro-2H-imidazo[4,5-c][1,5]naphthyridin-2-one], on PI3-Kα, the “PI3Ka Ki” value was 17.6 nM.

Take `Cn1cc(-c2ccc3ncc4c(c3n2)n(C2CCN(CC(F)(F)F)CC2)c(=O)n4C)cn1` [Compound 151, 3-methyl-8-(1-methyl-1H-pyrazol-4-yl)-1-[1-(2,2,2-trifluoroethyl)piperidin-4-yl]-1,3-dihydro-2H-imidazo[4,5-c][1,5]naphthyridin-2-one]: the IC50 in experiment [1] (setting [2]) stood at 0.195 µM.

As for `COCC(=O)N1CCC(n2c(=O)n(C)c3cnc4ccc(-c5cnc(OC)nc5)nc4c32)CC1` [Compound 161, 1-[1-(methoxyacetyl)piperidin-4-yl]-8-(2-methoxypyrimidin-5-yl)-3-methyl-1,3-dihydro-2H-imidazo[4,5-c][1,5]naphthyridin-2-one], the IC50 in experiment [1] (setting [2]) amounted to 0.0123 µM.

For `Cn1c(=O)n([C@H]2CC[C@H](O)CC2)c2c3nc(-c4cccc5[nH]ccc45)ccc3ncc21` [Compound 236, 1-(trans-4-hydroxycyclohexyl)-8-(1H-indo1-4-yl)-3-methyl-1,3-dihydro-2H-imidazo[4,5-c][1,5]naphthyridin-2-one], the IC50 in experiment [1] (setting [2]) came out at 0.00961 µM.

Consider `COc1ccc(-c2ccc3ncc4c(c3n2)n(C2CCOCC2)c(=O)n4CCO)cn1` [Compound 219, 3-(2-hydroxyethyl)-8-(6-methoxypyridin-3-yl)-1-(tetrahydro-2H-pyran-4-yl)-1,3-dihydro-2H-imidazo[4,5-c][1,5]naphthyridin-2-one], for which the Ki at mTOR was found to be 47.2 nM. Moreover, the “PI3Ka Ki” value on PI3-Kα was 75.7 nM.

`COc1ccccc1-c1ccc2ncc3c(c2n1)n(C1CCN(C(C)=O)CC1)c(=O)n3C` [Compound 280, 1-(1-acetylpiperidin-4-yl)-8-(2-methoxyphenyl)-3-methyl-1,3-dihydro-2H-imidazo[4,5-c][1,5]naphthyridin-2-one]: at PI3-Kα (read-out: PI3Ka Ki), the Ki worked out at 292 nM.

For the compound `Cc1ccc(-c2ccc3ncc4c(c3n2)n(C2CCOCC2)c(=O)n4CCO)cn1` [Compound 218, 3-(2-hydroxyethyl)-8-(6-methylpyridin-3-yl)-1-(tetrahydro-2H-pyran-4-yl)-1,3-dihydro-2H-imidazo[4,5-c][1,5]naphthyridin-2-one], the IC50 in experiment [1] (setting [2]) amounted to 0.428 µM. The “PI3Ka Ki” value at PI3-Kα was 45.4 nM.

With `COc1ccc(-c2ccc3ncc4c(c3n2)n(CCN2CCOCC2)c(=O)n4C)cn1` [Compound 269, 8-(6-methoxypyridin-3-yl)-3-methyl-1-(2-morpholin-4-ylethyl)-1,3-dihydro-2H-imidazo[4,5-c][1,5]naphthyridin-2-one], the Ki on mTOR worked out at 27.8 nM. The “PI3Ka Ki” value at PI3-Kα was 12.2 nM.

In the case of `CNC(=O)Nc1ccc(-c2ccc3ncc4c(c3n2)n(C2CCN(C(=O)[C@H](C)O)CC2)c(=O)n4C)cc1` [Compound 244, 1-[4-(1-{1-[(2S)-2-hydroxypropanoyl]piperidin-4-yl}-3-methyl-2-oxo-2,3-dihydro-1H-imidazo[4,5-c][1,5]naphthyridin-8-yl)phenyl]-3-methylurea], the IC50 in experiment [1] (setting [2]) amounted to 0.0815 µM. Further, the “PI3Ka Ki” value on PI3-Kα is 1.94 nM.

With `CCNC(=O)N1CCC(n2c(=O)n(C)c3cnc4ccc(-c5cnc6ccccc6c5)nc4c32)CC1` [Compound 124, N-ethyl-4-(3-methyl-2-oxo-8-quinolin-3-yl-2,3-dihydro-1H-imidazo[4,5-c][1,5]naphthyridin-1-yl)piperidine-1-carboxamide], the IC50 in experiment [1] (setting [3]) is 0.017 µM.

Consider `Cn1c(=O)n([C@H]2CC[C@H](O)CC2)c2c3nc(-c4cnc5[nH]ncc5c4)ccc3ncc21` [Compound 268, 1-(trans-4-hydroxycyclohexyl)-3-methyl-8-(1H-pyrazolo[3,4-b]pyridin-5-yl)-1,3-dihydro-2H-imidazo[4,5-c][1,5]naphthyridin-2-one], for which the IC50 in experiment [1] (setting [2]) stood at 0.0133 µM. In addition, at PI3-Kα, the “PI3Ka Ki” value was 0.366 nM.

Consider `COc1ncc(-c2ccc3ncc4c(c3n2)n([C@H]2CC[C@H](C(N)=O)CC2)c(=O)n4C)cn1` [Compound 157, trans-4-[8-(2-methoxypyrimidin-5-yl)-3-methyl-2-oxo-2,3-dihydro-1H-imidazo[4,5-c][1,5]naphthyridin-1-yl]cyclohexanecarboxamide], for which the IC50 in experiment [1] (setting [2]) is 0.0456 µM.

On mTOR, `CN(C)c1ccc(-c2ccc3ncc4c(c3n2)n(C2CCOCC2)c(=O)n4CCO)cn1` [Compound 222, 8-[6-(dimethylamino)pyridin-3-yl]-3-(2-hydroxyethyl)-1-(tetrahydro-2H-pyran-4-yl)-1,3-dihydro-2H-imidazo[4,5-c][1,5]naphthyridin-2-one] gave a Ki of 50.1 nM. In addition, the “PI3Ka Ki” value on PI3-Kα is 319 nM.

`COc1ncc(-c2ccc3ncc4c(c3n2)n(C2CCN(C(=O)CN(C)C)CC2)c(=O)n4C)cn1` [Compound 183, 1-[1-(N,N-dimethylglycyl)piperidin-4-yl]-8-(2-methoxypyrimidin-5-yl)-3-methyl-1,3-dihydro-2H-imidazo[4,5-c][1,5]naphthyridin-2-one]: the IC50 in experiment [1] (setting [2]) is 0.175 µM. The “PI3Ka Ki” value on PI3-Kα is 28.7 nM.

Regarding `COc1ccc(-c2ccc3ncc4c(c3n2)n(C2CCN(C(=O)[C@H](C)O)CC2)c(=O)n4C)cc1` [Compound 272, 1-{1-[(2S)-2-hydroxypropanoyl]piperidin-4-yl}-8-(4-methoxyphenyl)-3-methyl-1,3-dihydro-2H-imidazo[4,5-c][1,5]naphthyridin-2-one], in experiment [1] (setting [2]), the IC50 amounted to 0.014 µM. Moreover, at PI3-Kα, the “PI3Ka Ki” value was 1.84 nM.

The values above are taken from US8791131B2, “Imidazo[1,5]naphthyridine compounds, their pharmaceutical use and compositions” (Pfizer Inc., priority 2008, dated 2014).
